Patent US20240158446A1, “CYCLIC COMPOUND HAVING SELECTIVE INHIBITORY ACTION ON KRAS OVER HRAS AND NRAS” (CHUGAI SEIYAKU KABUSHIKI KAISHA, priority 2021, published 2024)
*1 amine or outer side, *2 acyl side, *3 side chain or, on linkers, in order; H or OH if unused. Where a SMILES comes first, the peptide text is derived from it. Bridges are numbered along the chain shown (N, C = ends). [ ]: non-standard residue; d: D form. The star is where a group is joined. hPhe(3-Cl-4-CF3) = N[C@@H](CCc1ccc(C(F)(F)F)c(Cl)c1)C(=O)O; X46 = CCCCN([C@@H](Cc1ccc(C)cc1)C(=O)[*:2])[*:1]; NMeGly(cPent) = CN[C@H](C(=O)O)C1CCCC1; NMeD = CN[C@@H](CC(=O)O)C(=O)O; NMeL = CN[C@@H](CC(C)C)C(=O)O; Morpholide = C1CN(*)CCO1; NMeA = CN[C@@H](C)C(=O)O; Ac5c = NC1(C(=O)O)CCCC1; Aze = O=C(O)[C@@H]1CCN1; Sar = CNCC(=O)O

Tests used:
[1] = target: GDP-bound NRAS wild-type protein (Homo sapiens, UniProt P01111); assay: Binding to NRAS by surface plasmon resonance (SPR), Single Cycle Kinetics; settings: SPR, GDP-bound NRAS wild-type protein vs GDP-bound KRAS wild-type protein
[2] = target: GDP-bound HRAS wild-type protein (Homo sapiens, UniProt P01112); assay: Binding to HRAS by surface plasmon resonance (SPR), Single Cycle Kinetics; settings: SPR, GDP-bound HRAS wild-type protein vs GDP-bound KRAS wild-type protein
GDP-bound HRAS wild-type protein, sequence (P01112 whole entry): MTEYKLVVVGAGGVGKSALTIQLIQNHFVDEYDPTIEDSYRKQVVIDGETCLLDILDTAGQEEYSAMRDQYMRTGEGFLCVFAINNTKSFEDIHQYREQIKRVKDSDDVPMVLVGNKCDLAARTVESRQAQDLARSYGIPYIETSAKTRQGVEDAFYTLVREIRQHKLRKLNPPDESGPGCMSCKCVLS

GDP-bound NRAS wild-type protein, sequence (P01111 whole entry): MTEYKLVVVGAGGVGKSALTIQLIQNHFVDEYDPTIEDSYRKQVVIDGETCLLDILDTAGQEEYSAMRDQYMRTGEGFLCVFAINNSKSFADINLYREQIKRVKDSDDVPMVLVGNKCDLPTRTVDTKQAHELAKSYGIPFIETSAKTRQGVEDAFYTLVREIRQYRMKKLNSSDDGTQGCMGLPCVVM

SMILES	NRAS/KRAS (ratio of KD value for NRAS to KD value for KRAS) [1]	HRAS/KRAS (ratio of KD value for HRAS to KD value for KRAS) [2]	further results
CCO[C@@H]1C[C@H]2C(=O)NC3(CCC3)C(=O)N(C)[C@@H](C3CCCC3)C(=O)N(C)[C@H](C(=O)N3CCOCC3)CC(=O)N(CC)[C@@H](CC(C)C)C(=O)N[C@@H]([C@@H](C)CC)C(=O)N(C)CC(=O)N(C)[C@H]3C[C@@H](C)CCN(C3=O)[C@@H](Cc3ccc(C(F)(F)F)cc3)C(=O)N(C)CC(=O)N[C@@H](CCc3cc(F)c(C(F)(F)F)c(F)c3)C(=O)N2C1 [PP1030]	B (a compound having 3 or more and less than 10 is denoted as B)	B (a compound having 3 or more and less than 10 is denoted as B)	–
CC[C@H](C)[C@@H]1NC(=O)[C@H](CC(C)C)N(C)C(=O)C[C@@H](C(=O)N2C[C@@H](C)O[C@@H](C)C2)N(C)C(=O)[C@H](C2CCCC2)N(C)C(=O)C2(CCCC2)NC(=O)[C@@H]2CCCN2C(=O)[C@H](CCc2ccc(C(F)(F)F)c(Cl)c2)NC(=O)CN(C)C(=O)[C@H](Cc2ccc(F)cc2)N2CCCCC[C@@H](C2=O)N(C)C(=O)CN(C)C1=O [PP1151]	B (a compound having 3 or more and less than 10 is denoted as B)	B (a compound having 3 or more and less than 10 is denoted as B)	–
CCCCN1C(=O)[C@@H]2CCN2C(=O)[C@H](C)N(C)C(=O)[C@H]([C@@H](C)CC)NC(=O)[C@H](CC(C)C)N(C)C(=O)C[C@@H](C(=O)N2CCOCC2)N(C)C(=O)[C@H](C2CCCC2)N(C)C(=O)C2(CCCC2)NC(=O)[C@@H]2CCCN2C(=O)[C@H](CCc2ccc(C(F)(F)F)c(Cl)c2)NC(=O)CN(C)C(=O)[C@@H]1Cc1ccc(C)cc1 [PP0055] ([NMeL]I[NMeA][Aze][X46][Sar][hPhe(3-Cl-4-CF3)]P[Ac5c][NMeGly(cPent)][NMeD]-Morpholide; lactam N-11)	C (A compound having a KD ratio of 0.1 or more and less than 3 is denoted as C)	C (A compound having a KD ratio of 0.1 or more and less than 3 is denoted as C)	–
CC[C@H](C)[C@@H]1NC(=O)[C@H](CC(C)C)N(C)C(=O)C[C@@H](C(=O)N2CCOCC2)N(C)C(=O)[C@H](C2CCCC2)N(C)C(=O)C2(CCCC2)NC(=O)[C@@H]2CCCN2C(=O)[C@H](CCc2ccc(C(F)(F)F)c(Cl)c2)NC(=O)CN(C)C(=O)[C@H](Cc2ccc(C(F)(F)F)cc2)N2CCCCC[C@@H](C2=O)N(C)C(=O)CN(C)C1=O (stereo in doubt) [PP0319]	B (a compound having 3 or more and less than 10 is denoted as B)	B (a compound having 3 or more and less than 10 is denoted as B)	–
CC[C@H](C)[C@@H]1NC(=O)[C@H](CC)N(C)C(=O)C[C@@H](C(=O)N2CCOCC2)N(C)C(=O)[C@H](C2CCCC2)N(C)C(=O)C2(CCCC2)NC(=O)[C@@H]2CCCN2C(=O)[C@H](CCc2cc(F)c(C(F)(F)F)c(F)c2)NC(=O)CN(C)C(=O)[C@H](Cc2ccc(C(F)(F)F)cc2)N2CCCC[C@@H](C2=O)N(C)C(=O)CN(C)C1=O [PP0550]	–	–	NRAS/KRAS (ratio of KD value with respect to NRAS to KD value with respect to KRAS) [1]: B (a compound having 3 or more and less than 10 is denoted as B); HRAS/KRAS (ratio of KD value with respect to HRAS to KD value with respect to KRAS) [2]: B (a compound having 3 or more and less than 10 is denoted as B)
CCCOC[C@H]1C(=O)N[C@@H]([C@@H](C)CC)C(=O)N(C2CC2)CC(=O)N(C)[C@H]2C/C=C\CCN(C2=O)[C@@H](Cc2ccc(C(F)(F)F)cc2)C(=O)N(C)CC(=O)N[C@@H](CCc2ccc(C(F)(F)F)c(OC)c2)C(=O)N2C[C@H](OCC)C[C@H]2C(=O)N(C)C2(CCC2)C(=O)N(C)[C@@H](C2CCCC2)C(=O)N(C)[C@H](C(=O)N(C)C)CC(=O)N1C [PP2318]	A (a compound having 10 or more and less than 20 is denoted as A)	A (a compound having 10 or more and less than 20 is denoted as A)	–
CCO[C@@H]1C[C@H]2C(=O)NC3(CCC3)C(=O)N(C)[C@@H](C3CCCC3)C(=O)N(C)[C@H](C(=O)N3CCOCC3)CC(=O)N(C)[C@@H](CC(C)C)C(=O)N[C@@H]([C@@H](C)CC)C(=O)N(C)CC(=O)N(C)[C@H]3C[C@H]4C[C@H]4CN(C3=O)[C@@H](Cc3ccc(C(F)(F)F)cc3)C(=O)N(C)CC(=O)N[C@@H](CCc3cc(F)c(C(F)(F)F)c(F)c3)C(=O)N2C1 [PP0829]	B (a compound having 3 or more and less than 10 is denoted as B)	C (A compound having a KD ratio of 0.1 or more and less than 3 is denoted as C)	–
CCO[C@@H]1C[C@H]2C(=O)NC3(CCC3)C(=O)N(C)[C@@H](C(CC)CC)C(=O)N(C)[C@H](C)CC(=O)N(C)[C@@H](CC(C)C)C(=O)N[C@@H]([C@@H](C)CC)C(=O)N(C)CC(=O)N(C)[C@H]3C/C=C\CCN(C3=O)[C@@H](Cc3ccc(F)cc3)C(=O)N(C)CC(=O)N[C@@H](CCc3cc(F)c(C(F)(F)F)c(F)c3)C(=O)N2C1 [PP1525]	–	–	NRAS/KRAS (ratio of KD value for NRAS to KD value for KRAS) ([1]; KD ratio class): A (a compound having 10 or more and less than 20 is denoted as A); HRAS/KRAS (ratio of KD value for HRAS to KD value for KRAS) ([2]; KD ratio class): A (a compound having 10 or more and less than 20 is denoted as A)
CCO[C@@H]1C[C@H]2C(=O)NC3(CCC3)C(=O)N(C)[C@@H](C3CCCC3)C(=O)N(CC)[C@H](C(=O)N3CCOCC3)CC(=O)N(C)[C@@H](CCC(Cl)Cl)C(=O)N[C@@H]([C@@H](C)CC)C(=O)N(C)CC(=O)N(C)[C@H]3CCCCCN(C3=O)[C@@H](Cc3ccc(C(F)(F)F)cc3)C(=O)N(C)CC(=O)N[C@@H](CCc3cc(F)c(C(F)(F)F)c(F)c3)C(=O)N2C1 [PP0949]	A (a compound having 10 or more and less than 20 is denoted as A)	A (a compound having 10 or more and less than 20 is denoted as A)	–
CCO[C@@H]1C[C@H]2C(=O)NC3(CCC3)C(=O)N(C)[C@@H](C3CCCC3)C(=O)N(C)[C@H](C(=O)N(C)C)CC(=O)N(C)[C@@H](CCOC)C(=O)N[C@@H]([C@@H](C)CC)C(=O)N(C)CC(=O)N(C)[C@H]3CCCCCN(C3=O)[C@@H](Cc3ccc(C(F)(F)F)cc3)C(=O)N(C)CC(=O)N[C@@H](CCc3cc(F)c(C(F)(F)F)c(F)c3)C(=O)N2C1 [PP0675]	–	–	NRAS/KRAS (ratio of KD value with respect to NRAS to KD value with respect to KRAS) [1]: B (a compound having 3 or more and less than 10 is denoted as B); HRAS/KRAS (ratio of KD value with respect to HRAS to KD value with respect to KRAS) [2]: B (a compound having 3 or more and less than 10 is denoted as B)
CCC[C@@H]1C[C@H]2C(=O)NC3(CCCC3)C(=O)N(C)[C@@H](C3CCCC3)C(=O)N(C)[C@H](C(=O)N(C)C)CC(=O)N(C)[C@@H](CC(C)C)C(=O)N[C@@H]([C@@H](C)CC)C(=O)N(C)CC(=O)N(C)[C@H]3C/C=C\CCN(C3=O)[C@@H](Cc3ccc(C)cc3)C(=O)N(C)CC(=O)N[C@@H](CCc3cc(F)c(C(F)(F)F)c(F)c3)C(=O)N2C1 [PP2193]	A (a compound having 10 or more and less than 20 is denoted as A)	A (a compound having 10 or more and less than 20 is denoted as A)	–
C#CC[C@H]1C(=O)N[C@@H]([C@@H](C)CC)C(=O)N(C)CC(=O)N(C)[C@H]2C/C=C\CCN(C2=O)[C@@H](Cc2ccc(C(F)(F)F)cc2)C(=O)N(C)CC(=O)N[C@@H](CCc2ccc(C(F)(F)F)c(OC)c2)C(=O)N2C[C@@H](C)C[C@H]2C(=O)NC2(CCC2)C(=O)N(C)[C@@H](C2CCCC2)C(=O)N(C)[C@H](C(=O)N(C)CCC)CC(=O)N1C [PP2063]	AA (a compound having 20 or more is denoted as AA)	A (a compound having 10 or more and less than 20 is denoted as A)	–
CCO[C@@H]1C[C@H]2C(=O)NC3(CC(C)(C)C3)C(=O)N(C)[C@@H](C3CCCC3)C(=O)N(C)[C@H](C(=O)N(C)C)CC(=O)N(C)[C@@H](CC3CCCC3)C(=O)N[C@@H]([C@@H](C)CC)C(=O)N(C)CC(=O)N(C)[C@H]3C/C=C\CCN(C3=O)[C@@H](Cc3ccc(C(F)(F)F)cc3)C(=O)N(C)CC(=O)N[C@@H](CCc3ccc(C(F)(F)F)c(OC)c3)C(=O)N2C1 [PP1565]	–	–	NRAS/KRAS (ratio of KD value for NRAS to KD value for KRAS) ([1]; KD ratio class): A (a compound having 10 or more and less than 20 is denoted as A); HRAS/KRAS (ratio of KD value for HRAS to KD value for KRAS) ([2]; KD ratio class): B (a compound having 3 or more and less than 10 is denoted as B)
CCC[C@H]1C(=O)N[C@@H](C(CC)CC)C(=O)N(C)CC(=O)N(C)[C@H]2C/C=C\CCN(C2=O)[C@@H](Cc2ccc(C)cc2)C(=O)N(C)CC(=O)N[C@@H](CCc2ccc(C(F)(F)F)c(Cl)c2)C(=O)N2C[C@H](OCC)C[C@H]2C(=O)NC2(CC(C)(C)C2)C(=O)N(C)[C@@H](CC(C)C)C(=O)N(C)[C@H](C(=O)N(C)C)CC(=O)N1C [PP2202]	A (a compound having 10 or more and less than 20 is denoted as A)	A (a compound having 10 or more and less than 20 is denoted as A)	–
CCO[C@@H]1C[C@H]2C(=O)NC3(CCC3)C(=O)N(C)[C@@H](C3CCCC3)C(=O)N(C)[C@H](C(=O)N3CCOCC3)CC(=O)N(C)[C@@H](CC(C)C)C(=O)N[C@@H](C3CC(F)(F)C3)C(=O)N(C)CC(=O)N(C)[C@H]3CCCCCN(C3=O)[C@@H](Cc3ccc(C(F)(F)F)cc3)C(=O)N(C)CC(=O)N[C@@H](CCc3cc(F)c(C(F)(F)F)c(F)c3)C(=O)N2C1 [PP0816]	A (a compound having 10 or more and less than 20 is denoted as A)	B (a compound having 3 or more and less than 10 is denoted as B)	–
CCO[C@@H]1C[C@H]2C(=O)NC3(CCC3)C(=O)N(C)[C@@H](C3CCCC3)C(=O)N(C)[C@H](C(=O)N3CCOCC3)CC(=O)N(C)[C@@H](CC3CCCCC3)C(=O)N[C@@H]([C@@H](C)CC)C(=O)N(C)CC(=O)N(C)[C@H]3CCCCCN(C3=O)[C@@H](Cc3ccc(C(F)(F)F)cc3)C(=O)N(C)CC(=O)N[C@@H](CCc3cc(F)c(C(F)(F)F)c(F)c3)C(=O)N2C1 [PP0686]	–	–	NRAS/KRAS (ratio of KD value with respect to NRAS to KD value with respect to KRAS) [1]: B (a compound having 3 or more and less than 10 is denoted as B); HRAS/KRAS (ratio of KD value with respect to HRAS to KD value with respect to KRAS) [2]: B (a compound having 3 or more and less than 10 is denoted as B)
